Source: EP0294695A2, “New polyoxygenated labdane derivatives, a process for their preparation, and their use as medicaments” (HOECHST AKTIENGESELLSCHAFT, priority 1987, dated 1988)

Assay: reduction of intraocular pressure
Format: in vivo
Details: 2% strength solution of the test compound; for Duration: duration of the decrease in intraocular pressure
Description: The results of investigations into the reduction of intraocular pressure by some typical compounds of the formula I, according to the invention, are listed in Table 2. The results are expressed as the percentage decrease in the intraocular pressure when a 2% strength solution of the test compound is used.

Row | SMILES | Decrease in intraocular pressure(%) | Duration
1 | C=C[C@@]1(C)CC(=O)[C@]2(O)[C@@]3(C)[C@@H](OC(=O)Nc4ccccc4)CCC(C)(C)[C@@H]3[C@H](O)[C@H](OC(=O)Nc3ccccc3)[C@@]2(C)O1 [Compound 1] | 18% | 5 h
2 | C=C[C@@]1(C)CC(=O)[C@]2(O)[C@@]3(C)[C@@H](O)CCC(C)(C)[C@@H]3[C@H](O)[C@H](OC(=O)NC)[C@@]2(C)O1 [Compound 2, 8,13-Epoxy-7β-methylaminocarbonyloxy-1α,6β,9α-trihydroxylabd-14-en-11-one] | 23% | 5 h
3 | C=C[C@@]1(C)CC(=O)[C@]2(O)[C@@]3(C)[C@@H](O)CCC(C)(C)[C@@H]3[C@H](O)[C@H](OC(=O)NC(C)C)[C@@]2(C)O1 [Compound 3, 7β-isopropylaminocarbonyloxy-8,13-epoxy-1α,6β,9α-trihydroxylabd-14-en-11-one] | 34% | 6 h
4 | C=C[C@@]1(C)CC(=O)[C@]2(O)[C@@]3(C)[C@@H](O)CCC(C)(C)[C@@H]3[C@H](O)[C@H](OC(=O)NC(C)(C)C)[C@@]2(C)O1 [Compound 4, 7β-t-Butylaminocarbonyloxy-8,13-epoxy-1α,6β9α-trihydroxylabd-14-en-11-one] | 21% | 6 h
